# Experimental data as given in PubChem BioAssay (NCI).
# Values joined by “and” are separate entries in the source; they are usually repeats but may differ in a detail not shown here. Equal values may be shown once.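 Following 48 hours of exposure in 96-well plates, responses at five concentrations were used to interpolate endpoints linearly. GI50 is the concentration that inhibits growth by half. Definition used: TGI = concentration required for complete inhibition of growth.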
# How the values were obtained:
# Assay in all cases: NCI tumour cell line growth inhibition, 48 h
# 786-0 renal = test system: 786-0 renal
# A498 renal = test system: A498 renal
# A549 NSCLC = test system: A549 NSCLC
# ACHN renal = test system: ACHN renal
# BT-549 breast = test system: BT-549 breast
# CAKI-1 renal = test system: CAKI-1 renal
# CCRF-CEM leukemia = test system: CCRF-CEM leukemia
# COLO 205 colon = test system: COLO 205 colon
# DLD-1 colon = test system: DLD-1 colon
# DMS 114 small cell lung = test system: DMS 114 small cell lung
# DMS 273 small cell lung = test system: DMS 273 small cell lung
# DU-145 prostate = test system: DU-145 prostate
# EKVX NSCLC = test system: EKVX NSCLC
# HCC-2998 colon = test system: HCC-2998 colon
# HCT-116 colon = test system: HCT-116 colon
# HCT-15 colon = test system: HCT-15 colon
# HL-60(TB) leukemia = test system: HL-60(TB) leukemia
# HOP-62 NSCLC = test system: HOP-62 NSCLC
# HOP-92 NSCLC = test system: HOP-92 NSCLC
# HS 578T breast = test system: HS 578T breast
# HT29 colon = test system: HT29 colon
# IGROV1 ovarian = test system: IGROV1 ovarian
# K-562 leukemia = test system: K-562 leukemia
# KM12 colon = test system: KM12 colon
# KM20L2 colon = test system: KM20L2 colon
# LOX IMVI melanoma = test system: LOX IMVI melanoma
# LXFL 529 NSCLC = test system: LXFL 529 NSCLC
# M14 melanoma = test system: M14 melanoma
# M19-MEL melanoma = test system: M19-MEL melanoma
# MALME-3M melanoma = test system: MALME-3M melanoma
# MCF7 breast = test system: MCF7 breast
# MDA-MB-231 breast = test system: MDA-MB-231 breast
# MDA-MB-435 = test system: MDA-MB-435
# MDA-N = test system: MDA-N
# MOLT-4 leukemia = test system: MOLT-4 leukemia
# NCI-H226 lung = test system: NCI-H226 lung
# NCI-H23 lung = test system: NCI-H23 lung
# NCI-H460 lung = test system: NCI-H460 lung
# NCI-H522 lung = test system: NCI-H522 lung
# NCI/ADR-RES ovarian = test system: NCI/ADR-RES ovarian
# OVCAR-3 ovarian = test system: OVCAR-3 ovarian
# OVCAR-4 ovarian = test system: OVCAR-4 ovarian
# OVCAR-5 ovarian = test system: OVCAR-5 ovarian
# OVCAR-8 ovarian = test system: OVCAR-8 ovarian
# P388 leukemia = test system: P388 leukemia
# P388/ADR leukemia = test system: P388/ADR leukemia
# PC-3 prostate = test system: PC-3 prostate
# RPMI-8226 leukemia = test system: RPMI-8226 leukemia
# RXF 393 renal = test system: RXF 393 renal
# SF-268 CNS = test system: SF-268 CNS
# SF-295 CNS = test system: SF-295 CNS
# SF-539 CNS = test system: SF-539 CNS
# SK-MEL-2 melanoma = test system: SK-MEL-2 melanoma
# SK-MEL-28 melanoma = test system: SK-MEL-28 melanoma
# SK-MEL-5 melanoma = test system: SK-MEL-5 melanoma
# SK-OV-3 ovarian = test system: SK-OV-3 ovarian
# SN12C renal = test system: SN12C renal
# SNB-75 CNS = test system: SNB-75 CNS
# SR leukemia = test system: SR leukemia
# SW-620 colon = test system: SW-620 colon
# T-47D breast = test system: T-47D breast
# U251 CNS = test system: U251 CNS
# UACC-257 melanoma = test system: UACC-257 melanoma
# UACC-62 melanoma = test system: UACC-62 melanoma
# UO-31 renal = test system: UO-31 renal
# XF 498 CNS = test system: XF 498 CNS
# HOP-18 NSCLC = test system: HOP-18 NSCLC
# SN12K1 renal = test system: SN12K1 renal
# SNB-19 CNS = test system: SNB-19 CNS
# SNB-78 CNS = test system: SNB-78 CNS
smiles,measurement,setting,value
C/C=C1\C[C@@H]2C(OC)Nc3cc(O)c(OC)cc3C(=O)N2C1 (stereo partly drawn),GI50,786-0 renal,5.29 nM
same,TGI,A498 renal,83.4 nM
same,GI50,A549 NSCLC,21.5 nM
same,TGI,A549 NSCLC,> 100000 nM
same,TGI,ACHN renal,29.4 nM
same,TGI,BT-549 breast,15.1 nM and 26.9 nM
same,GI50,CAKI-1 renal,7.52 nM
same,GI50,CCRF-CEM leukemia,2.29 nM
same,TGI,CCRF-CEM leukemia,103 nM and 349 nM
same,TGI,COLO 205 colon,21.2 nM
same,TGI,DLD-1 colon,20000 nM
same,TGI,DMS 114 small cell lung,3.5 nM
same,TGI,DMS 273 small cell lung,91.7 nM and < 14.3 nM
same,GI50,DU-145 prostate,3.48 nM
same,TGI,DU-145 prostate,24.8 nM and 210 nM
same,GI50,EKVX NSCLC,17.6 nM
same,TGI,EKVX NSCLC,105 nM and 34.6 nM
same,GI50,HCC-2998 colon,< 17.8 nM
same,TGI,HCC-2998 colon,35.8 nM and 23 nM
same,GI50,HCT-116 colon,17.2 nM
same,GI50,HCT-15 colon,7.33 nM
same,GI50,HL-60(TB) leukemia,2.26 nM
same,TGI,HL-60(TB) leukemia,216 nM and 85.2 nM
same,GI50,HOP-62 NSCLC,2.96 nM
same,TGI,HOP-62 NSCLC,15.5 nM and < 56.6 nM
same,GI50,HOP-92 NSCLC,7.38 nM
same,TGI,HOP-92 NSCLC,129 nM and < 13.7 nM
same,TGI,HS 578T breast,57.5 nM and < 28.2 nM
same,GI50,HT29 colon,7.5 nM
same,TGI,HT29 colon,160 nM and < 215 nM
same,GI50,IGROV1 ovarian,15.9 nM
same,TGI,IGROV1 ovarian,906 nM and 2840 nM
same,GI50,K-562 leukemia,3.47 nM
same,TGI,K-562 leukemia,2740 nM
same,TGI,KM12 colon,340 nM and 40.8 nM
same,TGI,KM20L2 colon,90.9 nM and 45 nM
same,GI50,LOX IMVI melanoma,3.5 nM
same,TGI,LOX IMVI melanoma,82.5 nM
same,TGI,LXFL 529 NSCLC,209 nM
same,TGI,M14 melanoma,42.8 nM and < 32 nM
same,TGI,M19-MEL melanoma,41.3 nM and 10.1 nM
same,GI50,MALME-3M melanoma,5.01 nM
same,TGI,MALME-3M melanoma,14.8 nM
same,GI50,MCF7 breast,6.92 nM
same,TGI,MCF7 breast,2830 nM
same,GI50,MDA-MB-231 breast,13.1 nM
same,TGI,MDA-MB-231 breast,62.6 nM and 375 nM
same,GI50,MDA-MB-435,8.19 nM
same,TGI,MDA-MB-435,62.3 nM and < 10.6 nM
same,GI50,MDA-N,14 nM
same,TGI,MDA-N,31.9 nM and < 16.3 nM
same,GI50,MOLT-4 leukemia,2.48 nM
same,TGI,MOLT-4 leukemia,225 nM
same,GI50,NCI-H226 lung,116 nM
same,TGI,NCI-H226 lung,728 nM and 163 nM
same,GI50,NCI-H23 lung,2.62 nM
same,TGI,NCI-H23 lung,8.92 nM
same,GI50,NCI-H460 lung,3.56 nM
same,TGI,NCI-H460 lung,598 nM and 1530 nM
same,GI50,NCI-H522 lung,1.19 nM
same,TGI,NCI-H522 lung,4.32 nM
same,TGI,NCI/ADR-RES ovarian,38.4 nM and < 11.6 nM
same,GI50,OVCAR-3 ovarian,4.19 nM
same,TGI,OVCAR-3 ovarian,34.1 nM
same,GI50,OVCAR-4 ovarian,3.55 nM
same,TGI,OVCAR-4 ovarian,< 17.2 nM and 10.1 nM
same,GI50,OVCAR-5 ovarian,7.75 nM
same,TGI,OVCAR-5 ovarian,63.2 nM and 306 nM
same,GI50,OVCAR-8 ovarian,8.04 nM
same,TGI,OVCAR-8 ovarian,610 nM and 1030 nM
same,TGI,P388 leukemia,< 12.3 nM
same,TGI,P388/ADR leukemia,10.4 nM
same,GI50,PC-3 prostate,22.1 nM
same,TGI,PC-3 prostate,404 nM and 478 nM
same,GI50,RPMI-8226 leukemia,2.69 nM
same,GI50,RXF 393 renal,1.01 nM
same,TGI,RXF 393 renal,2.19 nM
same,GI50,SF-268 CNS,2.7 nM
same,TGI,SF-268 CNS,174 nM and 1710 nM
same,GI50,SF-295 CNS,3.28 nM
same,TGI,SF-295 CNS,467 nM and 1430 nM
same,GI50,SF-539 CNS,3.15 nM
same,TGI,SF-539 CNS,8.92 nM and < 28.3 nM
same,GI50,SK-MEL-2 melanoma,2.88 nM
same,TGI,SK-MEL-2 melanoma,7.13 nM and < 15.9 nM
same,TGI,SK-MEL-28 melanoma,29.5 nM and 17.6 nM
same,GI50,SK-MEL-5 melanoma,3.27 nM
same,TGI,SK-MEL-5 melanoma,8.89 nM
same,GI50,SK-OV-3 ovarian,8.27 nM
same,TGI,SK-OV-3 ovarian,2370 nM
same,GI50,SN12C renal,6.25 nM
same,GI50,SNB-75 CNS,4.82 nM
same,TGI,SNB-75 CNS,20.5 nM and 16.7 nM
same,TGI,SR leukemia,60.2 nM
same,GI50,SW-620 colon,7.03 nM
same,TGI,SW-620 colon,36800 nM
same,TGI,T-47D breast,78.3 nM and < 26.5 nM
same,GI50,U251 CNS,3.53 nM
same,TGI,U251 CNS,10100 nM
same,TGI,UACC-257 melanoma,41.3 nM and < 12.6 nM
same,GI50,UACC-62 melanoma,2.84 nM
same,TGI,UACC-62 melanoma,9.48 nM
same,GI50,UO-31 renal,2.22 nM
same,GI50,XF 498 CNS,1.91 nM
same,TGI,XF 498 CNS,3.98 nM
Oc1c2c(c3c4c1N=CC=4CCN=3)C1(C=C(Br)C(O)C(Br)=C1)CCN2 (stereo not drawn),TGI,A498 renal,23400 nM
same,TGI,A549 NSCLC,12500 nM
same,TGI,CAKI-1 renal,29300 nM
same,TGI,CCRF-CEM leukemia,5790 nM
same,TGI,COLO 205 colon,418 nM
same,TGI,DLD-1 colon,3950 nM
same,TGI,DMS 114 small cell lung,718 nM
same,TGI,DMS 273 small cell lung,3450 nM
same,TGI,EKVX NSCLC,4940 nM
same,TGI,HCC-2998 colon,4610 nM
same,TGI,HCT-116 colon,1900 nM
same,TGI,HCT-15 colon,4420 nM
same,TGI,HL-60(TB) leukemia,2080 nM
same,TGI,HOP-18 NSCLC,23500 nM
same,TGI,HOP-62 NSCLC,33400 nM
same,TGI,HOP-92 NSCLC,8080 nM
same,TGI,HT29 colon,2150 nM
same,TGI,IGROV1 ovarian,2860 nM
same,TGI,K-562 leukemia,> 21000 nM
same,TGI,KM12 colon,6160 nM
same,TGI,KM20L2 colon,3260 nM
same,TGI,LOX IMVI melanoma,3090 nM
same,TGI,M19-MEL melanoma,1050 nM
same,TGI,MCF7 breast,2730 nM
same,TGI,NCI-H226 lung,9000 nM
same,TGI,NCI-H23 lung,2640 nM
same,TGI,NCI-H460 lung,8470 nM
same,TGI,NCI-H522 lung,818 nM
same,TGI,NCI/ADR-RES ovarian,2770 nM
same,TGI,OVCAR-3 ovarian,3120 nM
same,TGI,OVCAR-4 ovarian,2860 nM
same,TGI,OVCAR-5 ovarian,4490 nM
same,TGI,OVCAR-8 ovarian,2910 nM
same,TGI,P388/ADR leukemia,4810 nM
same,TGI,RPMI-8226 leukemia,7410 nM
same,TGI,RXF 393 renal,7570 nM
same,TGI,SF-268 CNS,5750 nM
same,TGI,SF-295 CNS,7740 nM
same,TGI,SF-539 CNS,4170 nM
same,TGI,SK-MEL-2 melanoma,11800 nM
same,TGI,SK-MEL-28 melanoma,21500 nM
same,TGI,SK-MEL-5 melanoma,2670 nM
same,TGI,SK-OV-3 ovarian,26000 nM
same,TGI,SN12C renal,3440 nM
same,TGI,SN12K1 renal,10700 nM
same,TGI,SNB-19 CNS,> 34800 nM
same,TGI,SNB-75 CNS,24500 nM
same,TGI,SNB-78 CNS,10400 nM
same,TGI,SW-620 colon,4190 nM
same,TGI,U251 CNS,5440 nM
same,TGI,UACC-257 melanoma,1270 nM
same,TGI,UACC-62 melanoma,2660 nM
same,TGI,UO-31 renal,28000 nM
